For 35 compounds, IC50 results are on record in US11370774B2, “Substituted benzofuran, benzopyrrole, benzothiophene, and structurally related complement inhibitors” (BioCryst Pharmaceuticals, Inc., priority 2018, dated 2022).

Some results are limits rather than exact numbers.

Chain of Factor D (P00746 26-253): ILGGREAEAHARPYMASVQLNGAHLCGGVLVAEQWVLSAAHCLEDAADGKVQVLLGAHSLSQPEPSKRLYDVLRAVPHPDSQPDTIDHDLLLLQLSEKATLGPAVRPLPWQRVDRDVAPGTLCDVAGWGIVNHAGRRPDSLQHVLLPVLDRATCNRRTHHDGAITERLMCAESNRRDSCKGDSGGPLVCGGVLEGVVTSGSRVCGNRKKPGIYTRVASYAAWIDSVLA

This test deals with Factor D (Homo sapiens (Human), UniProt P00746). Put plainly: Factor D esterolytic assay (Z-Lys-SBzl substrate, DTNB, 405 nm). In kind it is biochemical. The settings on record: Z-Lys-SBzl 1.29 mM, pH 7.5, 10% DMSO, tested a minimum of three times, read-out: Measured Ki (IC50) Value for Compounds: IC50. A digest of the protocol:
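Human Factor D ([…]) with 1.29 mM Z-Lys-SBzl in 100 mM HEPES, 500 mM NaCl, pH 7.5, 10% DMSO; substrate added immediately or after room-temperature preincubation. Released thiol reacted with DTNB, rate followed at 405 nm for 600 sec, 690 nm background subtracted. IC50 from percent inhibition versus uninhibited rate, n≥3.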
The IC50 is the point on the concentration scale where inhibition reaches its midpoint. `NCc1cccc(-c2cc(COc3ccccc3CC(=O)O)cc3sc(Cl)cc23)c1` [Compound 215h, 2-(2-((4-(3-(aminomethyl)phenyl)-2-chlorobenzo[b]thiophen-6-yl)methoxy)phenyl)acetic acid]: the 50% inhibitory concentration (IC50) was under 1000 nM. The figure for `NCc1cccc(-c2cc(NC(=O)c3ccccc3N)cc3ccoc23)c1` [Compound 216d, 2-amino-N-(7-(3-(aminomethyl)phenyl)benzofuran-5-yl)benzamide] is over 10000 nM.

Turning to `Cn1ccc2cc(COc3ccccc3CC(=O)O)cc(-c3cccc(CN)c3)c21` [Compound 218f, 2-(2-((7-(3-(aminomethyl)phenyl)-1-methyl-1H-indol-5-yl)methoxy)phenyl)acetic acid], the 50% inhibitory concentration (IC50) is over 10000 nM.

In the case of `CC(C)Cc1cc2cc(COc3ccccc3CC(=O)O)cc(-c3ccnc(CN)c3)c2o1` [Compound 219c, 2-(2-((7-(2-(aminomethyl)pyridin-4-yl)-2-isobutylbenzofuran-5-yl)methoxy)phenyl)acetic acid], the IC50 was under 1000 nM.

For the compound `CC(C)Cc1cc2cc(COc3ccccc3CC(=O)O)cc(-c3ccnc(CN)c3F)c2o1` [Compound 220g, 2-(2-((7-(2-(aminomethyl)-3-fluoropyridin-4-yl)-2-isobutylbenzofuran-5-yl)methoxy)phenyl)acetic acid], the half-inhibitory concentration (IC50) is under 1000 nM. The result for `NCc1cc(-c2cc(COc3ccccc3CC(=O)O)cc3sccc23)ccn1` [Compound 221c, 2-(2-((4-(2-(aminomethyl)pyridin-4-yl)benzo[b]thiophen-6-yl)methoxy)phenyl)acetic acid] reads under 1000 nM; that for `CC(=O)NC(C(=O)O)c1ccccc1OCc1cc(-c2cccc(CN)c2)c2occc2c1` (centres unmarked) [Compound 222f, 2-acetamido-2-(2-((7-(3-(aminomethyl)phenyl)benzofuran-5-yl)methoxy)phenyl)acetic acid], under 1000 nM. As to `NCc1cccc(-c2cc(COc3ccccc3C(NC(=O)C3CC3)C(=O)O)cc3ccoc23)c1` (centres unmarked) [Compound 223e, 2-(2-((7-(3-(aminomethyl)phenyl)benzofuran-5-yl)methoxy)phenyl)-2-(cyclopropanecarboxamido)acetic acid], the IC50 is under 1000 nM. The figure for `CC(=O)Nc1ccc(CC(=O)O)c(OCc2cc(-c3cccc(CN)c3)c3occc3c2)c1` [Compound 224c, 2-(4-acetamido-2-((7-(3-(aminomethyl)phenyl)benzofuran-5-yl)methoxy)phenyl)acetic acid] is under 1000 nM; for `NCc1cccc(-c2cc(COc3ccccc3CC(=O)O)cc3oc(Cl)cc23)c1` [Compound 225h, 2-(2-((4-(3-(aminomethyl)phenyl)-2-chlorobenzofuran-6-yl)methoxy)phenyl)acetic acid] it is under 1000 nM. Take `NCc1cc(-c2cc(COc3ccccc3CC(=O)O)cc3cc(C(F)(F)F)oc23)ccn1` [Compound 226c, 2-(2-((7-(2-(aminomethyl)pyridin-4-yl)-2-(trifluoromethyl)benzofuran-5-yl)methoxy)phenyl)acetic acid]: the IC50 was under 1000 nM. Regarding `NCc1cccc(-c2cc(COc3ccccc3CC(=O)O)cc3cc(F)oc23)c1` [Compound 227e, 2-(2-((7-(3-(aminomethyl)phenyl)-2-fluorobenzofuran-5-yl)methoxy)phenyl)acetic acid], the IC50 is under 1000 nM. `CC(C)S(=O)(=O)n1ccc2c(-c3cccc(CN)c3)cc(COc3ccccc3CC(=O)O)cc21` [Compound 228e, 2-(2-((4-(3-(aminomethyl)phenyl)-1-(isopropylsulfonyl)-1H-indol-6-yl)methoxy)phenyl)acetic acid]: the IC50 is under 1000 nM.

`CC(C)S(=O)(=O)n1ccc2c(-c3cccc(CN)c3F)cc(COc3ccccc3CC(=O)O)cc21` [Compound 229b, 2-(2-((4-(3-(aminomethyl)-2-fluorophenyl)-1-(isopropylsulfonyl)-1H-indol-6-yl)methoxy)phenyl)acetic acid]: the IC50 is under 1000 nM. As for `NCc1cccc(-c2cc(COc3cccnc3CC(=O)O)cc3ccoc23)c1` [Compound 230e, 2-(3-((7-(3-(aminomethyl)phenyl)benzofuran-5-yl)methoxy)pyridin-2-yl)acetic acid], the IC50 is 1000 to 10000 nM. On to `NCc1cccc(-c2cc(COc3ncccc3CC(=O)O)cc3ccoc23)c1` [Compound 231c, 2-(2-((7-(3-(aminomethyl)phenyl)benzofuran-5-yl)methoxy)pyridin-3-yl)acetic acid], for which the IC50 was under 1000 nM. In the case of `NCc1cc(-c2cc(COc3ccccc3CC(=O)O)cc3c2ccn3S(=O)(=O)C2CC2)ccn1` [Compound 232c, 2-(2-((4-(2-(aminomethyl)pyridin-4-yl)-1-(cyclopropylsulfonyl)-1H-indol-6-yl)methoxy)phenyl)acetic acid], the half-maximal inhibitory concentration (IC50) is under 1000 nM. Regarding `CC(C)S(=O)(=O)n1ccc2c(-c3ccnc(CN)c3)cc(COc3ccccc3CC(=O)O)cc21` [Compound 233c, 2-(2-((4-(2-(aminomethyl)pyridin-4-yl)-1-(isopropylsulfonyl)-1H-indol-6-yl)methoxy)phenyl)acetic acid], the concentration for half-maximal inhibition (IC50) was under 1000 nM.

`NCc1cccc(-c2cc(COc3ccccc3C(NC(=O)[C@@H]3C[C@H]3c3ccccc3)C(=O)O)cc3ccoc23)c1` (stereo partly drawn) [Compound 234f, 2-(2-((7-(3-(aminomethyl)phenyl)benzofuran-5-yl)methoxy)phenyl)-2-((1R,2R)-2-phenylcyclopropanecarboxamido)acetic acid]: the IC50 is under 1000 nM. With `NCc1cccc(-c2cc(COc3ccccc3CC(=O)O)cc3cc(C(F)(F)F)oc23)c1F` [Compound 235b, 2-(2-((7-(3-(aminomethyl)-2-fluorophenyl)-2-(trifluoromethyl)benzofuran-5-yl)methoxy)phenyl)acetic acid], the IC50 was under 1000 nM. Take `NCc1cccc(-c2cc(COc3cc(CN)ccc3CC(=O)O)cc3ccoc23)c1` [Compound 236d, 2-(4-(aminomethyl)-2-((7-(3-(aminomethyl)phenyl)benzofuran-5-yl)methoxy)phenyl)acetic acid]: the concentration for half-maximal inhibition (IC50) is under 1000 nM. Turning to `N#Cc1ccc(CC(=O)O)c(OCc2cc(-c3cccc(CN)c3)c3occc3c2)c1` [Compound 237b, 2-(2-((7-(3-(aminomethyl)phenyl)benzofuran-5-yl)methoxy)-4-cyanophenyl)acetic acid], the IC50 was under 1000 nM. Take `NCc1cccc(-c2cc(COc3cc(C(N)=O)ccc3CC(=O)O)cc3ccoc23)c1` [Compound 238c, 2-(2-((7-(3-(aminomethyl)phenyl)benzofuran-5-yl)methoxy)-4-carbamoylphenyl)acetic acid]: the half-inhibitory concentration (IC50) was under 1000 nM.

As for `N#Cc1ccc(OCc2cc(-c3cccc(CN)c3)c3occc3c2)c(CC(=O)O)c1` [Compound 239c, 2-(2-((7-(3-(aminomethyl)phenyl)benzofuran-5-yl)methoxy)-5-cyanophenyl)acetic acid], the IC50 was under 1000 nM. `NCc1nccc(-c2cc(COc3ccccc3CC(=O)O)cc3cc(C(F)(F)F)oc23)c1F` [Compound 240d, 2-(2-((7-(2-(aminomethyl)-3-fluoropyridin-4-yl)-2-(trifluoromethyl)benzofuran-5-yl)methoxy)phenyl)acetic acid]: the IC50 is under 1000 nM.

In the case of `NCc1cccc(-c2cc(C(=O)Nc3ccccc3CC(=O)O)c(F)c3ccoc23)c1` [Compound 241c, 2-(2-(7-(3-(aminomethyl)phenyl)-4-fluorobenzofuran-5-carboxamido)phenyl)acetic acid], the concentration for half-maximal inhibition (IC50) was under 1000 nM. For the compound `NCc1ccccc1-c1cc(COc2ccccc2CC(=O)O)cc2ccoc12` [Compound 243d, 2-(2-((7-(2-(aminomethyl)phenyl)benzofuran-5-yl)methoxy)phenyl)acetic acid], the IC50 is over 10000 nM. In the case of `NCc1cccc(-c2cc(COc3ccc(C(N)=O)cc3CC(=O)O)cc3ccoc23)c1` [Compound 244c, 2-(2-((7-(3-(aminomethyl)phenyl)benzofuran-5-yl)methoxy)-5-carbamoylphenyl)acetic acid], the IC50 fell in the range of 1000 to 10000 nM. With `NCc1cccc(-c2cc(COc3ccccc3CC(=O)O)cc3c(N)noc23)c1F` [Compound 245g, 2-(2-((3-amino-7-(3-(aminomethyl)-2-fluorophenyl)benzo[d]isoxazol-5-yl)methoxy)phenyl)acetic acid], the IC50 was under 1000 nM. `NCc1cccc(-c2cc(C(=O)Nc3ccccc3CC(=O)O)c(F)c3ccoc23)c1F` [Compound 246b, 2-(2-(7-(3-(aminomethyl)-2-fluorophenyl)-4-fluorobenzofuran-5-carboxamido)phenyl)acetic acid]: the IC50 was under 1000 nM.

`NCc1cccc(-c2cc(COc3ccccc3CC(=O)O)cc3ccsc23)c1F` [Compound 247b, 2-(2-((7-(3-(aminomethyl)-2-fluorophenyl)benzo[b]thiophen-5-yl)methoxy)phenyl)acetic acid]: the IC50 was under 1000 nM. The result for `NCc1cccc(-c2cc(COc3ccccc3CC(=O)O)cc3ccoc23)c1O` [Compound 248c, 2-(2-((7-(3-(aminomethyl)-2-hydroxyphenyl)benzofuran-5-yl)methoxy)phenyl)acetic acid] reads under 1000 nM; that for `NCc1cccc(-c2cc(COc3ccc(O)cc3CC(=O)O)cc3ccoc23)c1` [Compound 249f, 2-(2-((7-(3-(aminomethyl)phenyl)benzofuran-5-yl)methoxy)-5-hydroxyphenyl)acetic acid], under 1000 nM; that for `NCc1cccc(-c2cc(NC(=O)[C@@H]3CCCN3CC(=O)O)cc3ccoc23)c1` [Compound 250f, (S)-2-(2-((7-(3-(aminomethyl)phenyl)benzofuran-5-yl)carbamoyl)pyrrolidin-1-yl)acetic acid], 1000 to 10000 nM.

Consider `COc1c(C(=O)Nc2ccccc2CC(=O)O)cc(-c2ccnc(CN)c2)c2occc12` [Compound 251c, 2-(2-(7-(2-(aminomethyl)pyridin-4-yl)-4-methoxybenzofuran-5-carboxamido)phenyl)acetic acid], for which the IC50 was 1000 to 10000 nM.
